Data on three compounds can be found in ChEMBL document CHEMBL4706648, “Antitubercular 2-Pyrazolylpyrimidinones: Structure-Activity Relationship and Mode-of-Action Studies” (J Med Chem, 2021).

Values after ≈ are worked out from the molar mass of the structure shown. Active and inactive are the calls of the source. The rule behind the calls is not given here.

Series [1] concerns Mycobacterium tuberculosis. Format: functional. The conditions noted are these: H37Rv, 168 h, time 7 day.
Series [2] deals with Voltage-gated inwardly rectifying potassium channel KCNH2 (Homo sapiens, UniProt Q12809). The experiment in a line: Inhibition of human ERG.
Series [3] can be described thus: Solubility of compound at 3 uM. The series is classed as physicochemical.
Series [4] is described as follows: Lipophilicity, log D of the compound in n-octanol and phosphate buffer at pH 7.4 measured after 3 hrs by HPLC-DAD analysis. Format: physicochemical.
Series [5] relates to Mycobacterium tuberculosis. Format: functional. Particulars: H37Rv, 168 h, time 7 day. The source holds these as a separate data set.
Series [6] deals with Mycobacterium tuberculosis. The series is classed as functional. The conditions noted are these: H37Rv, 168 h, time 7 day. The source holds these as a separate data set.
Series [7] in a line: Aqueous solubility of compound at pH 7.4. The series is classed as physicochemical. Particulars: buffer.
Series [8] deals with HepG2. The experiment in a line: Antiproliferative activity against human HepG2 cells assessed as reduction in cell viability grown under galactose medium by MTT assay. Format: functional, cell-based.
Series [9] is described as follows: Metabolic stability in rat liver microsomes assessed as parent compound remaining at 1 uM in presence of NADPH by LC-MS/MS analysis. Format: ADME, Microsome. For orientation: Microsomes from liver hold many membrane-bound enzymes, among them those of drug oxidation.
Series [10] deals with Mycobacterium tuberculosis. In words: Antimycobacterial activity against mmpL3 gene silenced Mycobacterium tuberculosis H37Rv assessed as inhibition of bacterial growth grown under middlebrook 7H9 medium incubated for 7 days by alamar blue broth microdilution method. The series is classed as functional, organism-based. The conditions noted are these: time 7.0 day. In general terms: Alamar Blue is a resazurin reagent that responds to reducing activity.

In series [11] the test system is Mycobacterium tuberculosis. Format: functional. The conditions noted are these: H37Rv, 168 h, time 7 day. The source holds these as a separate data set.
Series [12] concerns HepG2. In words: Antiproliferative activity against human HepG2 cells assessed as reduction in cell viability grown under glucose medium by MTT assay. Format: functional, cell-based. For orientation: Tetrazolium assays rely on reduction of a dye to a coloured formazan, in cell work by metabolically active cells.
In series [13] the test system is Mycobacterium tuberculosis. Format: functional. Particulars: H37Rv, 168 h, time 7 day. The source holds these as a separate data set.
Series [14] can be described thus: Metabolic stability in mouse liver microsomes assessed as parent compound remaining at 1 uM in presence of NADPH by LC-MS/MS analysis. The series is classed as ADME, Microsome.
Series [15] deals with Mycobacterium tuberculosis. The experiment in a line: Antimycobacterial activity against wild-type Mycobacterium tuberculosis H37Rv assessed as inhibition of bacterial growth grown under middlebrook 7H9 medium incubated for 7 days by alamar blue broth microdilution method. The series is classed as functional. Particulars: 168 h, time 7 day.
For a further series, the system named is CHO. In words: Cytotoxicity against CHO cells assessed as reduction in cell viability by MTT assay. The series is classed as cell-based. The conditions noted are these: Cricetulus griseus.
For series [16], the system named is Mycobacterium tuberculosis. Format: functional. Particulars: H37Rv, 168 h, time 7 day. The source holds these as a separate data set.
A short description of series [17]: Metabolic stability in human liver microsomes assessed as parent compound remaining at 1 uM in presence of NADPH by LC-MS/MS analysis. The series is classed as ADME, Microsome.
Series [18] is described as follows: Volume of distribution during elimination phase in C57/BL6 mouse blood at 2 mg/kg, iv administered as bolus dose measured upto 24 hrs by LC-MS/MS analysis. The series is classed as ADME, organism-based. The conditions noted are these: C57/BL6, mouse, blood, read-out: Vd.
Series [19] can be described thus: Tmax in C57/BL6 mouse blood at 20 mg/kg, po measured upto 24 hrs by LC-MS/MS analysis. Format: ADME, organism-based. The conditions noted are these: C57/BL6, mouse, blood, read-out: Tmax.
The nature of series [20]: AUC (0 to infinity) in C57/BL6 mouse blood at 2 mg/kg, iv administered as bolus dose measured upto 24 hrs by LC-MS/MS analysis. Further details: route intravenous, dose 2 mg/kg, time <=24. Particulars: C57/BL6, mouse, blood. The series is classed as ADME, organism-based.
Series [21] is described as follows: Metabolic stability in mouse liver microsomes assessed as parent compound remaining after 30 mins. Format: ADME, Microsome. The conditions noted are these: 0.5 h.
The test system of series [22] is Mycobacterium tuberculosis. In words: Bactericidal activity against Mycobacterium tuberculosis H37Rv assessed as reduction in CFU grown under middlebrook 7H9/OADC-Glycerol-Tween80 medium at 1 to 2 times MIC incubated for 7 days. The series is classed as functional. Particulars: time 7 day.
Series [23] is described as follows: Metabolic stability in human liver microsomes assessed as parent compound remaining after 30 mins. The series is classed as ADME, Microsome. The conditions noted are these: 0.5 h.
Series [24] is described as follows: Intrinsic clearance in C57/BL6 mouse blood at 2 mg/kg, iv administered as bolus dose measured upto 24 hrs by LC-MS/MS analysis. Format: ADME, organism-based. Particulars: in vivo.
Series [25] is described as follows: Metabolic stability in rat liver microsomes assessed as parent compound remaining after 30 mins. The series is classed as ADME, Microsome. Particulars: 0.5 h.
A short description of series [26]: Cmax in C57/BL6 mouse blood at 2 mg/kg, iv administered as bolus dose measured upto 24 hrs by LC-MS/MS analysis. Format: ADME, organism-based. Further details: route intravenous, dose 2 mg/kg, time <=24. The conditions noted are these: C57/BL6, mouse, blood.
Series [27] in a line: Protein binding in human plasma assessed as unbound fraction at 5 uM incubated for 1 hr at 37 degreeC and measured after 4 hrs by ultracentrifugation based LC-MS/MS analysis. Format: ADME, cell-free. The conditions noted are these: 5 h.
A short description of series [28]: Apparent half life in C57/BL6 mouse blood at 2 mg/kg, iv administered as bolus dose measured upto 24 hrs by LC-MS/MS analysis. Format: ADME, organism-based. The conditions noted are these: C57/BL6, mouse, blood, read-out: t1/2(app) (converted).
Series [29] is described as follows: Apparent half life in C57/BL6 mouse blood at 20 mg/kg, po measured upto 24 hrs by LC-MS/MS analysis. The series is classed as ADME, organism-based. Particulars: C57/BL6, mouse, blood, read-out: t1/2(app) (converted).
Series [30] in a line: AUC (0 to infinity) in C57/BL6 mouse blood at 20 mg/kg, po measured upto 24 hrs by LC-MS/MS analysis. The series is classed as ADME, organism-based. Further details: route oral, dose 20 mg/kg, time <=24.
Series [31] in a line: Total blood clearance in C57/BL6 mouse blood at 2 mg/kg, iv administered as bolus dose measured upto 24 hrs by LC-MS/MS analysis. The series is classed as ADME, organism-based.
Series [32] in a line: Oral bioavailability in C57/BL6 mouse blood at 20 mg/kg measured upto 24 hrs by LC-MS/MS analysis. Format: ADME, organism-based. Particulars: C57/BL6, mouse, blood.
Series [33] in a line: Kinetic solubility of compound at 200 uM at pH 7.4 measured after 20 hrs by HPLC-DAD analysis. Format: physicochemical. The conditions noted are these: buffer, pH 7.4, 20 h.
A short description of series [34]: Cmax in C57/BL6 mouse blood at 20 mg/kg, po measured upto 24 hrs by LC-MS/MS analysis. The conditions noted are these: C57/BL6, mouse, blood. The series is classed as ADME, organism-based. Further details: route oral, dose 20 mg/kg, time <=24.
Series [35] is described as follows: Drug metabolism in C57/BL6 mouse blood assessed as glucuronide metabolite formation by HPLC analysis. The series is classed as ADME, tissue-based.

Chain of Voltage-gated inwardly rectifying potassium channel KCNH2 (Q12809 whole entry): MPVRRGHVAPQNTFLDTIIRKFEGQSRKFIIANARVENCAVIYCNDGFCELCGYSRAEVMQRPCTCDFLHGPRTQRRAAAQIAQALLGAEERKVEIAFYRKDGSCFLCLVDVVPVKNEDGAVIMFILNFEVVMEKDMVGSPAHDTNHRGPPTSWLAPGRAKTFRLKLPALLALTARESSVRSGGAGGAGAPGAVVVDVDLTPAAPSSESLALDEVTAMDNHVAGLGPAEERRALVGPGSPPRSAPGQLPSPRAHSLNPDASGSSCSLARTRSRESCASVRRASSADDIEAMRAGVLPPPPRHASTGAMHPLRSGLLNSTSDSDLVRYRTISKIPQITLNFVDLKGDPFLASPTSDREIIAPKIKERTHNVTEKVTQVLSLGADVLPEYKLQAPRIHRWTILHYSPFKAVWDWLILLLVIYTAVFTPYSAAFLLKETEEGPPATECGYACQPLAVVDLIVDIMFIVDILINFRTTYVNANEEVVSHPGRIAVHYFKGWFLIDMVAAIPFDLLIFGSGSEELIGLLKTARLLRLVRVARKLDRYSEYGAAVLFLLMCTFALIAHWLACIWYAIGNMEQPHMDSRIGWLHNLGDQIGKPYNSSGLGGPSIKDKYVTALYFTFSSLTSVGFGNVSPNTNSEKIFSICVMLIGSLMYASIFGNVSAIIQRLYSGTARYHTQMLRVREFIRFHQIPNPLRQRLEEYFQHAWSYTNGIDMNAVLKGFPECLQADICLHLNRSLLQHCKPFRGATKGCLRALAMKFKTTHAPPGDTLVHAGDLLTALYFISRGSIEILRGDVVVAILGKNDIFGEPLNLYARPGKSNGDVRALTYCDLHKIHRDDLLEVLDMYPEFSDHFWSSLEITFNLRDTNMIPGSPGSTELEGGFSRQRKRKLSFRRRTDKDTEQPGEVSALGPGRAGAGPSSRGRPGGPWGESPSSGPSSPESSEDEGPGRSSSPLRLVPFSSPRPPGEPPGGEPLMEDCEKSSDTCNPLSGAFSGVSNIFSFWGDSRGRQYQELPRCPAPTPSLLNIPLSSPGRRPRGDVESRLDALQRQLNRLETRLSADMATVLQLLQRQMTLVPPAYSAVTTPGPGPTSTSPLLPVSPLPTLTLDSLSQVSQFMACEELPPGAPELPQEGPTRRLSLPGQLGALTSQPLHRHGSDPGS

Usually MIC stands for the lowest concentration found to suppress growth. One may read the IC50 as the concentration at which inhibition is half-maximal. As a reminder, the solubility is the concentration that dissolves in the medium under given conditions. Broadly, the logD is lipophilicity at a set pH, counting ionised and neutral species. In the case of `Cc1cc(C)n(-c2nc(O)cc(-c3ccccc3)n2)n1`, the MIC in series [1] amounted to 1.5 µM (≈ 0.399 µg/mL); in series [5], 0.3 µM (≈ 0.0799 µg/mL); in [6], 0.02 µM (≈ 0.00533 µg/mL); in [11], 1.5 µM (≈ 0.399 µg/mL); in series [13], 0.4 µM (≈ 0.107 µg/mL); in [15], 1.7 µM (≈ 0.453 µg/mL). The compound also yielded an MIC in series [16] of 0.6 µM (≈ 0.16 µg/mL). The half-inhibitory concentration (IC50) in series [2] is greater than 30 µM; with HepG2 [8], 4 µM; in the series on HepG2 [12], 4 µM; in the series with CHO it was 8 µM. The same compound had a solubility at 3 µM in series [3] of 180 µM (≈ 47.9 µg/mL). This compound also came in with a log distribution coefficient (logD) at 3 h in series [4] of 2.5. Further, the solubility in series [7] was found to be 10 µM (≈ 2.66 µg/mL). The Stabilty in series [9] was 69%; in series [14], 22%; in [17], 98%. The outcome in series [10] was Active.

What is called Vd is a proportionality between amount in the body and measured concentration, not a real space. One may read the Tmax as the time at which the peak concentration occurs. What is called AUC(0-inf) is total exposure, with the tail of the curve extrapolated. As a reminder, the Cmax is the maximum level reached in the sampled fluid or tissue. One may read the clearance as a measure of how efficiently the substance is removed, as volume per time. What is called bioavailability is dose-corrected exposure relative to a reference, in per cent. For the compound `Cc1cc(Nc2ccc(F)cc2)n(-c2nc(C(F)(F)F)cc(=O)[nH]2)n1`, in series [18], the distribution volume (Vd) turned out to be 37.4 L/kg. The Tmax in series [19] amounted to 0.5 h. In addition, the AUC(0-inf) was 1.52 µM·h in series [20] and 5.22 µM·h in [30]. For the same compound, the figures for the Stabilty in series [21], in series [23] and in series [25] were 96%, 98% and 98%, respectively. The Activity in series [22] is listed as 2 log10CFU. Also, the solubility in series [7] was 15 µM (≈ 5.3 µg/mL). Moreover, the CL in series [24] is greater than 4000 mL/min/kg. Moreover, the outcome in series [10] was Active. The results for the MIC in [11] and in [15] were 1.56 µM (≈ 0.551 µg/mL) and 1.2 µM (≈ 0.424 µg/mL), respectively. In addition, the results for the Cmax in series [26] and in series [34] were 2.4 µM and 2.9 µM, respectively. Moreover, in series [27], the Fu was 0.013. In addition, the results for the half-life in series [28] and in series [29] were 5.6 h and 4.4 h, respectively. In addition, in the series with CHO, the IC50 was 20 µM. In [31], this compound registered a clearance of 80.9 mL/min/kg. Besides, the bioavailability in [32] is 33%. Also, in [33], the Kinetic_solubility worked out at 15 µM.

As to `CCNc1cc(C)nn1-c1nc(-c2cccnc2)cc(=O)[nH]1`, the Vd in [18] turned out to be 0.1 L/kg. In [19], the Tmax came out at 1 h. Also, the figures for the AUC(0-inf) in series [20] and in [30] were 256 µM·h and 1090 µM·h, respectively. The Stabilty in [21] is 94%; in [23], 80%; in series [25] it was 95%. In addition, in series [22], the Activity amounted to 2 log10CFU. In series [7], this compound gave a solubility of 90 µM (≈ 26.7 µg/mL). For the same compound, the CL in series [24] was 34 mL/min/kg. The result in series [10] was Active. Moreover, the minimum inhibitory concentration (MIC) in series [11] is 6.25 µM (≈ 1.85 µg/mL); in series [15], 5.8 µM (≈ 1.72 µg/mL). In addition, the Drug metabolism result in [35] was “Metabolite_Detected”. The results for the Cmax in series [26] and in series [34] were 33.1 µM and 104 µM, respectively. Also, the Fu in series [27] is 0.009. The half-life in series [28] was 4 h; in series [29], 6.1 h. The IC50 in the series on CHO is greater than 50 µM. Moreover, in series [31], the clearance was 0.4 mL/min/kg. In [32], this compound yielded a bioavailability of 44%. The compound also displayed a Kinetic_solubility in series [33] of 90 µM.
